# PubChem BioAssay AID1845196 (Molecular Pharmacology Branch, DTP, NCI, 2023)
# pIC50: −log10 of the molar value.
# Test system: 292921-168-R tumor spheroid viability
# Test: Anticancer human tumor 292921-168-R patient-derived pancreatic carcinoma cell line growth inhibition
# Conditions: spheroids with HUVEC and MSC; for pIC50: curve of first compound; for viability, T/C: stronger effect = lower value
# Procedure, shortened: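 Complex spheroids of malignant cells with endothelial cells and mesenchymal stem cells; agents alone or combined, from near clinical Cmax (or 10 microM if unknown) down in half-log steps, 0.25% DMSO final.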
# [1] = second compound 0.003 µM, first compound 0.0316 µM
# [2] = second compound 0.003 µM, first compound 0.1 µM
# [3] = second compound 0.003 µM, first compound 0.316 µM
# [4] = second compound 0.003 µM, first compound 1 µM
# [5] = second compound 0.003 µM, first compound 3.16 µM
# [6] = second compound 0.003 µM, first compound 10 µM
# [7] = second compound 0.00949 µM, first compound 0.0316 µM
# [8] = second compound 0.00949 µM, first compound 0.1 µM
# [9] = second compound 0.00949 µM, first compound 0.316 µM
# [10] = second compound 0.00949 µM, first compound 1 µM
# [11] = second compound 0.00949 µM, first compound 3.16 µM
# [12] = second compound 0.00949 µM, first compound 10 µM
# [13] = second compound 0.03 µM, first compound 0.0316 µM
# [14] = second compound 0.03 µM, first compound 0.1 µM
# [15] = second compound 0.03 µM, first compound 0.316 µM
# [16] = second compound 0.03 µM, first compound 1 µM
# [17] = second compound 0.03 µM, first compound 3.16 µM
# [18] = second compound 0.03 µM, first compound 10 µM
# [19] = second compound 0.0949 µM, first compound 0.0316 µM
# [20] = second compound 0.0949 µM, first compound 0.1 µM
# [21] = second compound 0.0949 µM, first compound 0.316 µM
# [22] = second compound 0.0949 µM, first compound 1 µM
# [23] = second compound 0.0949 µM, first compound 3.16 µM
# [24] = second compound 0.0949 µM, first compound 10 µM
# [25] = second compound 0.3 µM, first compound 0.0316 µM
# [26] = second compound 0.3 µM, first compound 0.1 µM
# [27] = second compound 0.3 µM, first compound 0.316 µM
# [28] = second compound 0.3 µM, first compound 1 µM
# [29] = second compound 0.3 µM, first compound 3.16 µM
# [30] = second compound 0.3 µM, first compound 10 µM
# 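Note: spheroids exposed to compounds for 7 days.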
structure (smiles),measurement,setting,value
Cn1ncnc1[C@H]1c2n[nH]c(=O)c3cc(F)cc(c23)N[C@@H]1c1ccc(F)cc1 + CC[C@@]1(O)C(=O)OCc2c1cc1n(c2=O)Cc2cc3c(CN(C)C)c(O)ccc3nc2-1,pIC50,second compound 0.003 µM,6.74
same,pIC50,second compound 0.00949 µM,7.88
same,pIC50,second compound 0.03 µM,> 8.02
same,pIC50,second compound 0.0949 µM,> 8.02
same,pIC50,second compound 0.3 µM,> 8.02
same,"viability, T/C","second compound 0.003 µM, first compound 0.00949 µM",82.7%
same,"viability, T/C","second compound 0.003 µM, first compound 0.03 µM",73.9%
same,"viability, T/C","second compound 0.003 µM, first compound 0.0949 µM",57.4%
same,"viability, T/C","second compound 0.003 µM, first compound 0.3 µM",41%
same,"viability, T/C","second compound 0.003 µM, first compound 0.949 µM",31.4%
same,"viability, T/C","second compound 0.003 µM, first compound 3 µM",12%
same,"viability, T/C","second compound 0.00949 µM, first compound 0.00949 µM",52.6%
same,"viability, T/C","second compound 0.00949 µM, first compound 0.03 µM",44.7%
same,"viability, T/C","second compound 0.00949 µM, first compound 0.0949 µM",33.8%
same,"viability, T/C","second compound 0.00949 µM, first compound 0.3 µM",30.1%
same,"viability, T/C","second compound 0.00949 µM, first compound 0.949 µM",19.5%
same,"viability, T/C","second compound 0.00949 µM, first compound 3 µM",12.9%
same,"viability, T/C","second compound 0.03 µM, first compound 0.00949 µM",23.6%
same,"viability, T/C","second compound 0.03 µM, first compound 0.03 µM",21.1%
same,"viability, T/C","second compound 0.03 µM, first compound 0.0949 µM",17.4%
same,"viability, T/C","second compound 0.03 µM, first compound 0.3 µM",16.9%
same,"viability, T/C","second compound 0.03 µM, first compound 0.949 µM",14.5%
same,"viability, T/C","second compound 0.03 µM, first compound 3 µM",8.5%
same,"viability, T/C","second compound 0.0949 µM, first compound 0.00949 µM",11%
same,"viability, T/C","second compound 0.0949 µM, first compound 0.03 µM",10.7%
same,"viability, T/C","second compound 0.0949 µM, first compound 0.0949 µM",9.81%
same,"viability, T/C","second compound 0.0949 µM, first compound 0.3 µM",8.52%
same,"viability, T/C","second compound 0.0949 µM, first compound 0.949 µM",7.84%
same,"viability, T/C","second compound 0.0949 µM, first compound 3 µM",5.32%
same,"viability, T/C","second compound 0.3 µM, first compound 0.00949 µM",4.91%
same,"viability, T/C","second compound 0.3 µM, first compound 0.03 µM",5.12%
same,"viability, T/C","second compound 0.3 µM, first compound 0.0949 µM",4.52%
same,"viability, T/C","second compound 0.3 µM, first compound 0.3 µM",4.48%
same,"viability, T/C","second compound 0.3 µM, first compound 0.949 µM",3.83%
same,"viability, T/C","second compound 0.3 µM, first compound 3 µM",2.41%
Cc1cc(C)c(CNC(=O)c2cc(-c3ccc(CN4CCOCC4)cc3)cc3c2cnn3C2CCCC2)c(=O)[nH]1 + CC[C@@]1(O)C(=O)OCc2c1cc1n(c2=O)Cc2cc3c(CN(C)C)c(O)ccc3nc2-1,pIC50,second compound 0.003 µM,< 5.00
same,pIC50,second compound 0.00949 µM,< 5.00
same,pIC50,second compound 0.03 µM,> 7.50
same,pIC50,second compound 0.0949 µM,> 7.50
same,pIC50,second compound 0.3 µM,> 7.50
same,"viability, T/C",[1],87.6%
same,"viability, T/C",[2],78.4%
same,"viability, T/C",[3],84.7%
same,"viability, T/C",[4],82.2%
same,"viability, T/C",[5],85.9%
same,"viability, T/C",[6],50.9%
same,"viability, T/C",[7],76.9%
same,"viability, T/C",[8],77.2%
same,"viability, T/C",[9],76%
same,"viability, T/C",[10],71.7%
same,"viability, T/C",[11],64.8%
same,"viability, T/C",[12],53%
same,"viability, T/C",[13],32.5%
same,"viability, T/C",[14],37.8%
same,"viability, T/C",[15],34.9%
same,"viability, T/C",[16],35.5%
same,"viability, T/C",[17],28.6%
same,"viability, T/C",[18],27.8%
same,"viability, T/C",[19],14.8%
same,"viability, T/C",[20],14.2%
same,"viability, T/C",[21],14.2%
same,"viability, T/C",[22],13.4%
same,"viability, T/C",[23],14.1%
same,"viability, T/C",[24],13.1%
same,"viability, T/C",[25],3.97%
same,"viability, T/C",[26],4.78%
same,"viability, T/C",[27],4.87%
same,"viability, T/C",[28],5.2%
same,"viability, T/C",[29],5.56%
same,"viability, T/C",[30],6.73%
[2H]c1nc(C)nc([2H])c1-c1cc(NC[C@@H](C)c2cccc3c(C(=O)NC)ccnc23)ncn1 + CC[C@@]1(O)C(=O)OCc2c1cc1n(c2=O)Cc2cc3c(CN(C)C)c(O)ccc3nc2-1,pIC50,second compound 0.003 µM,< 5.00
same,pIC50,second compound 0.00949 µM,< 5.00
same,pIC50,second compound 0.03 µM,> 7.50
same,pIC50,second compound 0.0949 µM,> 7.50
same,pIC50,second compound 0.3 µM,> 7.50
same,"viability, T/C",[1],101%
same,"viability, T/C",[2],87.8%
same,"viability, T/C",[3],96.9%
same,"viability, T/C",[4],102%
same,"viability, T/C",[5],93.8%
same,"viability, T/C",[6],86.9%
same,"viability, T/C",[7],83.3%
same,"viability, T/C",[8],81%
same,"viability, T/C",[9],77.7%
same,"viability, T/C",[10],76.9%
same,"viability, T/C",[11],79.8%
same,"viability, T/C",[12],70.9%
same,"viability, T/C",[13],49.2%
same,"viability, T/C",[14],35.9%
same,"viability, T/C",[15],41.5%
same,"viability, T/C",[16],37.4%
same,"viability, T/C",[17],37.4%
same,"viability, T/C",[18],23%
same,"viability, T/C",[19],12.1%
same,"viability, T/C",[20],13.4%
same,"viability, T/C",[21],12.2%
same,"viability, T/C",[22],12.6%
same,"viability, T/C",[23],9.08%
same,"viability, T/C",[24],8.57%
same,"viability, T/C",[25],3.57%
same,"viability, T/C",[26],4.5%
same,"viability, T/C",[27],3.67%
same,"viability, T/C",[28],3.37%
same,"viability, T/C",[29],3.59%
same,"viability, T/C",[30],2.83%
